Measurements reported in patent publication US20230295259A1 (Protagonist Therapeutics, Inc., priority 2020, published 2023).
Starred links: 1 amine or outer side, 2 acyl side, 3 side chain; linkers in the order of their positions; H or OH if unused. Positions of bridges follow the written chain, without caps; N, C: chain ends. Groups on a side chain read outwards from the residue. No end group written: not given here. *: point of attachment. C18 diacid = O=C(O)CCCCCCCCCCCCCCCCC(=O)*; γGlu = O=C(O)[C@H](CCC(=O)[*:2])N[*:1]; Isovaleryl = CC(C)CC(=O)*; AEEA = NCCOCCOCC(=O)O

How the values were obtained:
[1] = target: human ferroportin (SLC40A1) fused in frame with GFP, stably expressed in HEK293 cells (human) (UniProt Q9NP59); assay: cell-based or functional assay
[2] = target: T1, ferroportin (endogenously expressed in T47D cells) (Homo sapiens, UniProt Q9NP59); assay: T47D cell-based ferroportin internalization assay in presence of 0.5% mouse serum albumin (AF647-conjugated detection peptide, flow cytometry); conditions: read-out: IC50: T47D Internalization MSA
T1 construct: is a human breast carcinoma adherent cell line which endogenously expresses ferroportin; host or cells: T47D
T1 sequence (Q9NP59 1-571): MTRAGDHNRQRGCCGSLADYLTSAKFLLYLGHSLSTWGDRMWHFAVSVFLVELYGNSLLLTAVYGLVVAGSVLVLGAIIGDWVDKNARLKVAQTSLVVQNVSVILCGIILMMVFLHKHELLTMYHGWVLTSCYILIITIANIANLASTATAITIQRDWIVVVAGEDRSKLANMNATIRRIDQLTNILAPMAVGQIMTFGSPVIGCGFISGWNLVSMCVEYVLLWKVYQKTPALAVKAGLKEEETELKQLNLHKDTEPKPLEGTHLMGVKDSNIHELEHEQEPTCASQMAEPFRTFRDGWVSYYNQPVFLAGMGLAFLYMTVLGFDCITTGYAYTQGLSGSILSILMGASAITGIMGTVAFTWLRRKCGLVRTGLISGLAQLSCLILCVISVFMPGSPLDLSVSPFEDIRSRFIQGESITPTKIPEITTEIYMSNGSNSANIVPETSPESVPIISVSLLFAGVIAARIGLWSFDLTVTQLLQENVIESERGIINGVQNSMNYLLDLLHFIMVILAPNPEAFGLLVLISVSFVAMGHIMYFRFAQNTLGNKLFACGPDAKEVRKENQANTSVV
Description: The potency of the peptides in causing ferroportin internalization was evaluated in a T47D cell-based assay. […] In this internalization assay, the potency of the test peptides was evaluated in the presence of serum albumin, which is the main protein component in the blood. T47D cells were maintained in RPMI media (containing required amount of fetal bovine serum) and regularly sub-cultured. […] The test peptide dilution series were allowed to incubate at room temperature for 30 min. Then the media was aspirated from the 96-well cell plate and test peptide dilution series were added. After 1 hr incubation, the media with test peptides was aspirated out and AF647-conjugated detection peptide was added at fixed concentration of 200 nM. […] The cells were washed again after a 2 hr incubation in preparation for flow cytometry analysis. The Median Fluorescence Intensity (MFI) of the AF647-positive population was measured (after removing dead cells and non-singlets from the analysis). The MFI values were used to generate a dose-response curve and obtain IC50 potencies for the test peptides.

LAD2 cells = type: cell-based, human
Description: In anaphylactoid reactions, the main mechanism involves the direct stimulation of mast cells or basophils, leading to the release of anaphylactic mediators such as histamine and β-hexosaminidase. A recent study by McNeil et al. (McNeil B D et al., 2015) reported that MrgprX2, a specific membrane receptor on human mast cells, induces anaphylactoid reactions. The LAD2 (Laboratory of Allergic Diseases 2) human mast cell line, derived from human mast cell sarcoma/leukemia (Kirshenbaum et al., 2003), is commonly employed to study anaphylactoid reactions, because its biological properties are identical to those of primary human mast cells, including the overexpression of the MrgprX2 receptor and sensitivity towards degranulating peptides (Kulka et al., 2008). The release of anaphylactic mediators such as f-hexosaminidase, is assessed by fluorometric quantification.
On the day of the assay, serial dilutions of compounds were added to LAD2 cells plated at 20000 cells/well in a 96-well plate. After incubation for 30 minutes, the amount of β-hexosaminidase released into the supernatants and in cell lysates was quantified using the fluorogenic substrate 4-methylumbelliferyl-N-acetyl-b-D-glucosaminide. Dose-response curves were generated by plotting the % of β-hexosaminidase release (y-axis) against the concentrations of peptides tested (x-axis). […]. (Table 2D).

[3] = Stability in simulated intestinal fluid (FaSSIF with 1% pancreatin); type: in vitro ADME; conditions: pig, pH 6.5, Table 2A, 20 μM in FaSSIF with 1% pancreatin, 37° C., percent in brackets not explained, read-out: SIF Half life
Description: FaSSIF was prepared by dissolving 1.2 g porcine pancreatin (Chem-supply, PL378) in 100 mL Blank FaSSIF and stirred at room temperature for 30 minutes. The solution was filtered through 0.45 μm membrane and aliquot and stored at −20° C.
Experimental compounds of interest (20 μM) were incubated with pre-warmed FaSSIF (1% pancreatin in final incubation mixture) at 37° C. Aliquots were taken at various time points up to 24 hours (e.g. 0, 0.25, 1, 3, 6 and 24 hr), and immediately quenched with 4 volumes of organic solvent (acetonitrile/methanol (1:1) and 0.1% formic acid, containing 1 μM internal standard). Quenched samples were stored at 4° C. until the end of the experiment and centrifuged at 4,000 rpm for 10 minutes. The supernatant was diluted 1:1 with deionized water and analyzed using LC-MS. Percentage remaining at each time point was calculated based on the peak area ratio (analyte over internal standard) relative to the initial level at time zero. Half-lives were calculated by fitting to a first-order exponential decay equation using GraphPad.
Compounds of interest (at concentration of 20 μM) were mixed with pre-warmed FaSSIF (1% pancreatin in final working solution). The solution mixture was aliquoted and incubated at 37° C. The number of aliquots required was equivalent to the number of time points (e.g. 0, 0.25, 1, 3, 6 and 24 hr). […]

human ferroportin = target: T2, human ferroportin (Homo sapiens, UniProt Q9NP59); assay: FPN activity assay: internalization/degradation of ferroportin-GFP in stably transfected HEK293 cells (decrease in GFP fluorescence); type: cell-based; conditions: Table 2B; HEK293 cells expressing human ferroportin-GFP, at least 18 hours incubation; read-out: FPN EC50
T2 construct: expressed in transfected cells
T2 sequence (Q9NP59 1-571): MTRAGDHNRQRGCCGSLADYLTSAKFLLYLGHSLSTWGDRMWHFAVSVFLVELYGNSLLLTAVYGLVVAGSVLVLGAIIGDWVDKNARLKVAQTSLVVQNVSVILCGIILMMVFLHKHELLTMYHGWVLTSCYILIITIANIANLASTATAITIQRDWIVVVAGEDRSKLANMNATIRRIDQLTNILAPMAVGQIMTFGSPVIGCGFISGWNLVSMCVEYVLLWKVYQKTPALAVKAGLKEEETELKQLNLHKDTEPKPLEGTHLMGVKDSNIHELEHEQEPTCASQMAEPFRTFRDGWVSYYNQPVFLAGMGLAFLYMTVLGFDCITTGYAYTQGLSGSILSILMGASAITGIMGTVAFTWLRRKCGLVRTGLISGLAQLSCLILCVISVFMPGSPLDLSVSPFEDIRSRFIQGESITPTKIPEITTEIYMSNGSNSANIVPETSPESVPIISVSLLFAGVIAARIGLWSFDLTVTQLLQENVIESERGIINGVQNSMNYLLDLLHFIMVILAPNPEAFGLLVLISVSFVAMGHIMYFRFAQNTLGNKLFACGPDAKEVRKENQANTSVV
Description: Following internalization, the ferroportin protein is degraded.
A retro inverse peptide is a peptide with a reversed sequence in all D amino acids. An example is that Hy-Glu-Thr-His-NH2 becomes Hy-DHis-DThr-DGlu-NH2. The EC50 of these reference compounds for ferroportin internalization/degradation was determined according to the FPN activity assay described above. These peptides served as control standards.
These values were determined as described herein.

[4] = target: T3, human ferroportin (SLC40A1) fused in frame with GFP, stably expressed in HEK293 cells (human, UniProt Q9NP59 1-571); assay: cell-based or functional assay
T3 sequence (looked up): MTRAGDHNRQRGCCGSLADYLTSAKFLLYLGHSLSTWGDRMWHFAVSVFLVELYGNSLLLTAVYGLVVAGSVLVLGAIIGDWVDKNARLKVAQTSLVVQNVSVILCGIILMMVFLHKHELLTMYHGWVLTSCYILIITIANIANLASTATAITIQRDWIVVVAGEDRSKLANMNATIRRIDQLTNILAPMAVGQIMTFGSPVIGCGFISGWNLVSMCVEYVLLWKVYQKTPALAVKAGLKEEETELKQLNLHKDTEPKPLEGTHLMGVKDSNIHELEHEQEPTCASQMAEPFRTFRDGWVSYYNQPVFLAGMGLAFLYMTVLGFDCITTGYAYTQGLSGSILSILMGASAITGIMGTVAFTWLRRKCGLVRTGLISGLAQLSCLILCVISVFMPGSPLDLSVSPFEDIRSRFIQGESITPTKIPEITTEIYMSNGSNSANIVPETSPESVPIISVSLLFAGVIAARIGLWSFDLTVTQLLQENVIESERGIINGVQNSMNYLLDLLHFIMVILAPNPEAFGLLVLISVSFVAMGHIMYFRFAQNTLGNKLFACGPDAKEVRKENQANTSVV

Mini-Hepcidin 1-9 (peptide)
Potency EC50 [1]: 712 nM

CC[C@H](C)[C@@H]1NC(=O)[C@@H](NC(=O)[C@@H]2CCCN2C(=O)[C@@H](NC(=O)[C@H](Cc2cnc[nH]2)NC(=O)[C@@H](NC(=O)[C@H](CCC(=O)OC)NC(=O)CC(C)C)[C@@H](C)O)C(c2ccccc2)c2ccccc2)CSSC[C@@H](C(N)=O)NC(=O)[C@@H](CCCCN)NC(=O)C[C@H](Cc2ccccc2)NC(=O)[C@H](CCCCNC(=O)COCCOCCNC(=O)COCCOCCNC(=O)[C@H](CN)NC(=O)CCCCCCCCCCCCCCCCC(=O)O)NC1=O [Compound 279, Isovaleric Acid-[Glu_OMe]-T-H-[Dpa]-P—C—I-[Lys(1PEG2_1PEG2_Dap_C18_Diacid)]-[bhPhe]-[(D)Lys]-C—NH2]
IC50 [2]: 15.4 nM | EC50 (LAD2 cells): 8000 nM

RI-Mini Hepcidin (peptide)
Potency EC50 (nM) [1]: > 10000 nM

CC[C@H](C)[C@@H]1NC(=O)[C@@H](NC(=O)[C@@H]2CCCN2C(=O)[C@@H](NC(=O)[C@H](Cc2cnc[nH]2)NC(=O)[C@@H](NC(=O)[C@H](CCC(=O)O)NC(=O)CC(C)C)C(C)O)C(c2ccccc2)c2ccccc2)CSSC[C@@H](C(N)=O)NC(=O)[C@@H](CCCCN)NC(=O)C[C@H](Cc2ccccc2)NC(=O)[C@H](CCCCNC(=O)COCCOCCNC(=O)COCCOCCNC(=O)CCCCCNC(=O)CCCCCCCCCCCCCCCCC(=O)O)NC1=O (stereo partly shown) [Compound 12, Isovaleric Acid-E-T-H-[Dpa]-P-[Cys]-I-[Lys(1Peg2_1Peg2_Ahx_C18_Diacid)]-[bhPhe]-[(D)Lys]-[Cys]-NH2]
EC50 (LAD2 cells): 12900 nM | half-life at 20 μM [3]: 1.5 h

CC[C@H](C)[C@@H]1NC(=O)[C@@H](NC(=O)[C@@H]2CCCN2C(=O)[C@@H](NC(=O)[C@H](Cc2cnc[nH]2)NC(=O)[C@@H](NC(=O)[C@H](CCC(=O)O)NC(=O)CC(C)C)[C@@H](C)O)C(c2ccccc2)c2ccccc2)CSSC[C@@H](C(N)=O)NC(=O)[C@@H](CCCCN)NC(=O)C[C@H](Cc2ccccc2)NC(=O)[C@H](CCCCNC(=O)COCCOCCNC(=O)COCCOCCNC(=O)[C@H](CN)NC(=O)CCCCCCCCCCCCCCCCC(=O)O)NC1=O [Compound 278, Isovaleric Acid-E-T-H-[Dpa]-P—C—I-[Lys(1PEG2_1PEG2_Dap_C18_Diacid)]-[bhPhe]-[(D)Lys]-C—NH2]
DC50 (human ferroportin): 4.3 nM | IC50 [2]: 14.2 nM | EC50 (LAD2 cells): 15500 nM

Hepcidin (peptide)
Potency EC50 [1]: 34 nM

B1: Compound 202 (peptide)
peptide: XETXXPCIXXXC
modifications: Isovaleric Acid-E-T-[His_1Me]-[Dpa]-P-C-I-[Lys(PEG12_Palm)]-[bhPhe]-[(D)Lys]-C-NH2
FPN EC50 [4]: 25.6 nM

Isovaleryl-ETHFPCIK([AEEA-AEEA-γGlu-C18 diacid])FEPRSK(Ac)GCT (disulfide 6-16 (inferred)) [Compound 214]
FPN EC50 [4]: > 3000 nM

Isovaleryl-ETHFPCIK([AEEA-AEEA-γGlu-C18 diacid])FEPRSK(Ac)GCE (disulfide 6-16 (inferred)) [Compound 215]
FPN EC50 [4]: > 3000 nM
